In PubChem BioAssay (NCI) one finds TGI data, which are given here for 15 compounds.

Experiment in all cases: NCI tumour cell line growth inhibition, 48 h
Assay [1] concerns 786-0 renal.
In assay [2] the test system is A549 NSCLC.
The test system of assay [3] is COLO 205 colon.
The subject of assay [4] is HCC-2998 colon.
The test system of assay [5] is HCT-15 colon.
The test system of assay [6] is LOX IMVI melanoma.
Assay [7] concerns MALME-3M melanoma.
Assay [8] has as its system MCF7 breast.
In assay [9] the test system is MDA-N.
The subject of assay [10] is MOLT-4 leukemia.
Assay [11] deals with NCI-H23 lung.
The subject of assay [12] is OVCAR-5 ovarian.
In assay [13] the test system is PC-3 prostate.
Assay [14] concerns RPMI-8226 leukemia.
The test system of assay [15] is SF-295 CNS.
For assay [16], the system named is SF-539 CNS.
For assay [17], the system named is SNB-19 CNS.
Assay [18] has as its system TK-10 renal.
The subject of assay [19] is UACC-257 melanoma.

Each structure is given as a SMILES string.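 Results reflect a 48-hour exposure of cells in 96-well plates to compound at five concentrations. TGI: concentration producing complete growth inhibition.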

For the compound `C=CCN(c1cc(O)c2c(c(C)cn2S(=O)(=O)c2ccccc2)c1[N+](=O)[O-])S(C)(=O)=O`, the TGI in assay [1], in assay [2], in assay [3], in [4], in [5] and in assay [6] was above 100 µM each time. Moreover, the TGI in [7], in assay [8], in assay [9], in assay [10], in assay [11] and in assay [12] was above 100 µM throughout. The TGI in [13], in [14], in [15], in assay [16], in assay [17] and in [18] was above 100 µM in each case. For the same compound, in assay [19], the TGI was above 100 µM.
Regarding `S=c1[nH]nc(Cn2c3ccc(Br)cc3c3nc4ccccc4nc32)o1`, the TGI was above 100 µM in [1]; 59.3 µM in [2]; above 100 µM in assay [3]; above 100 µM in [4]; above 100 µM in assay [5]; above 65.4 µM in assay [6]. Moreover, the TGI in [7] is above 100 µM; in [8], above 100 µM; in assay [9] it was above 100 µM; in assay [10], 60.5 µM; in assay [11], above 100 µM; in assay [12], above 100 µM. Besides, the TGI was above 93.2 µM in [13]; 6.82 µM in assay [14]; above 100 µM in [15]; above 80.7 µM in assay [16]; above 100 µM in assay [17]; above 100 µM in [18]. Besides, the TGI in assay [19] is above 100 µM.
In the case of `Cc1ccc2c(c1C)CC1(Cc3ccc(C)c(C)c3C1=O)C2=O` (stereo unspecified), the TGI in assay [1], in assay [2], in assay [3], in assay [4], in assay [5] and in [6] was above 100 µM in each case. Besides, the TGI in assay [7], in [8], in assay [9], in assay [10], in assay [12] and in assay [13] was above 100 µM in each case. Also, the TGI in assay [14], in assay [15], in assay [16], in assay [17], in [18] and in [19] was above 100 µM each time.
For `CCOc1ccc(NC(=O)C(=O)C(/C(=N/N)C(=O)OC)c2nc3ccc([N+](=O)[O-])cc3[nH]c2=O)cc1` (stereo unspecified), the TGI in [1], in [2], in [3], in [4], in [5] and in [6] was above 100 µM each time. Further, the TGI in assay [7], in [8], in assay [9], in assay [10], in [11] and in assay [12] was above 100 µM throughout. Further, the TGI in assay [13], in assay [14], in [15], in assay [16], in [17] and in assay [18] was above 100 µM each time. The compound also had a TGI in assay [19] above 100 µM.
In the case of `O[C@@H]1[C@H](OC2c3ccccc3-c3ccccc32)[C@H](OCc2ccccc2)[C@@H]2OC[C@H]1O2`, the TGI in assay [1] was 42.1 µM; in assay [2], above 100 µM; in [3] it was above 100 µM; in [4], above 100 µM; in assay [5], above 100 µM; in assay [6] it was above 100 µM. The TGI in assay [7], in assay [8], in [9], in assay [10], in [11] and in [12] was above 100 µM each time. Also, the TGI in assay [13] is above 100 µM; in assay [14] it was above 100 µM; in assay [15], above 100 µM; in assay [16], 81.7 µM; in assay [17], above 100 µM; in assay [18] it was above 100 µM. In assay [19], this compound yielded a TGI above 100 µM.
For the compound `Cc1cn([C@H]2C[C@@H](N3C(=O)c4ccccc4C3=O)[C@@H](CO[Si](C)(C)C(C)(C)C)O2)c(=O)[nH]c1=O`, the TGI in [1] is 81.5 µM; in assay [2], above 100 µM; in [3] it was above 100 µM; in [4], above 100 µM; in assay [5], above 100 µM; in assay [6] it was above 100 µM. The TGI in assay [7], in assay [8], in [9], in assay [10], in assay [11] and in assay [12] was above 100 µM each time. For the same compound, the TGI in [13], in assay [14], in assay [15], in assay [16], in assay [17] and in [18] was above 100 µM in each case. In assay [19], this compound yielded a TGI above 100 µM.
Take `CC1(c2ccc(Cl)cc2)C=C(c2ccc(Cl)cc2)C(C#N)=C(C(C#N)C#N)N1` (stereo unspecified): the TGI in assay [1] stood at 26.9 µM; in [2] it was 42.2 µM; in [3] it was 32.8 µM; in assay [4], 31.3 µM; in assay [5], 30.4 µM; in assay [6] it was 32.3 µM. For the same compound, the TGI in [7] was 29.1 µM; in assay [8] it was 37.3 µM; in assay [9] it was 31.8 µM; in [10], 47 µM; in assay [11], 32.3 µM; in assay [12], 33 µM. Also, the TGI was 31.5 µM in [13]; above 100 µM in [14]; 33.9 µM in [15]; 43.9 µM in assay [16]; 37.2 µM in [17]; 33.8 µM in [18]. The TGI in assay [19] amounted to 37.3 µM.
On to `NC(CCC(=O)O)C(=O)NC(Cc1ccc(N(CCCl)CCCl)cc1)C(=O)O` (stereo unspecified), for which the TGI in assay [1], in [2], in [3], in [4], in assay [5] and in [6] was above 100 µM throughout. In addition, the TGI in assay [7], in assay [8], in assay [9], in assay [10], in assay [11] and in assay [12] was above 100 µM in each case. The TGI in assay [13], in assay [14], in assay [15], in [16], in assay [17] and in assay [18] was above 100 µM each time. In assay [19], the TGI is above 100 µM.
Turning to `N#CCc1nc(-c2cc3ccccc3oc2=O)cs1`, the TGI in assay [1], in [2], in assay [3], in assay [4], in assay [5] and in [6] was above 100 µM throughout. Further, the TGI in assay [7] was above 100 µM; in assay [8], above 100 µM; in assay [9], above 100 µM; in assay [10], 63.1 µM; in assay [12], above 100 µM; in assay [13] it was above 100 µM. In addition, the TGI in assay [14], in assay [15], in [16], in [17], in [18] and in [19] was above 100 µM each time.
As for `COC(=O)c1sc(=S)sc1SCc1cccc(CSc2sc(=S)sc2C(=O)OC)c1`, the TGI in [1], in assay [3], in [4], in [5], in assay [6] and in assay [7] was above 100 µM in each case. For the same compound, the TGI in assay [8], in assay [9], in assay [10], in assay [11], in [12] and in assay [13] was above 100 µM throughout. Moreover, the TGI was above 100 µM in [14]; above 100 µM in [15]; 62.6 µM in assay [16]; 86.3 µM in [17]; 96.9 µM in [18]; above 100 µM in assay [19].
`N/C(CCSCCSCC/C(N)=N\O)=N\O`: the TGI in assay [1], in assay [2], in [3], in [4], in assay [5] and in [6] was above 100 µM each time. For the same compound, the TGI in assay [7], in assay [8], in assay [9], in assay [10], in assay [11] and in assay [12] was above 100 µM in each case. Also, the TGI in assay [13], in [14], in assay [16], in [17] and in assay [18] was above 100 µM throughout.
For `COC(=O)C1CC2CC1C1C2SC(F)(F)C1(F)F` (stereo unspecified), the TGI in assay [1], in assay [2], in assay [3], in [4], in assay [5] and in assay [6] was above 100 µM in each case. The TGI in assay [7], in assay [8], in assay [9], in [10], in assay [12] and in assay [13] was above 100 µM throughout. For the same compound, the TGI in assay [14], in assay [15], in assay [16], in [17], in assay [18] and in assay [19] was above 100 µM each time.
`Cc1nn(C(=O)Cc2ccccc2)c2c1C(c1ccc(/C=C/c3ccccc3)cc1)SC(N)=N2` (stereo unspecified): the TGI in assay [1], in [2], in [3], in assay [4], in assay [5] and in assay [6] was above 100 µM each time. Moreover, the TGI in assay [7], in [8], in [9], in assay [10], in [11] and in assay [13] was above 100 µM in each case. Moreover, the TGI in assay [14], in assay [15], in assay [16], in assay [17], in [18] and in assay [19] was above 100 µM throughout.
Take `Nc1nccc(NCC2(CO)CC(CCc3ccccc3)C2)n1` (stereo unspecified): the TGI was determined as 27.8 µM in assay [1]; 39.7 µM in assay [2]; 29.5 µM in assay [3]; 35.9 µM in assay [4]; 36.1 µM in assay [5]; 34.4 µM in assay [6]. Further, the TGI came out at 29.1 µM in [7]; 22.2 µM in assay [8]; 31.4 µM in assay [9]; 41.7 µM in assay [10]; 41.4 µM in assay [11]; 34.2 µM in [12]. The TGI in [13] stood at 31.9 µM; in [14] it was 51 µM; in assay [15], 26.4 µM; in assay [16] it was 32.1 µM; in [18], 25.5 µM; in assay [19], 37.9 µM.
As to `N#CC1=C(S)N(C2OC(CO)C(O)C(O)C2O)C(c2ccccc2)=CC1c1ccco1` (stereo unspecified), the TGI is above 100 µM in assay [1]; above 100 µM in [2]; above 100 µM in assay [4]; above 100 µM in assay [5]; 93 µM in assay [6]; above 100 µM in assay [7]. For the same compound, the TGI in assay [8], in assay [9], in [10], in [11], in [12] and in [13] was above 100 µM throughout. Also, the TGI in assay [14], in [15], in assay [16], in assay [17], in [18] and in [19] was above 100 µM in each case.
